From US8501442B2, “Determination of 5-ASA efficacy in CRC prevention and/or treatment by gene expression analysis” (Sofar SpA, priority 2009, dated 2013) come the findings set out here.

Holding throughout (assay type): cell-based
Data set [1] has as its system CaCo2 cells. Description: Proliferation of CaCo2 cells under 5-ASA treatment (preliminary experiments).
The test system of data set [2] is μ-protocadherin/β-catenin protein complex in CaCo2 cells. Briefly: Coimmunoprecipitation analysis of μ-protocadherin/β-catenin protein interaction in CaCo2 cells. As to conditions: lysates of CaCo2 cells, 20 mM 5-ASA for 96 h. Here is the method: The hypothesis arising from our data would directly imply that μ-protocadherin, as other proteins belonging to the cadherin superfamily, is able to bind β-catenin on the plasmatic membrane. To verify this interaction we performed co-immunoprecipitation experiments in which β-catenin was immunoprecipitated from lysates of CaCo2 cells treated with 20 mM 5-ASA for 96 h using a specific antibody and the immunoprecipitate was subsequently analyzed by Western blot carried out with a distinct antibody able to detect μ-protocadherin. […] FIG. 4. Coimmunoprecipitation analysis of μ-protocadherin/β-catenin protein interaction. […] Western blot analysis of μ-protocadherin expression was performed in cell lysates of control untreated and 5-ASA treated CaCo2 cells (Input, left panel), immunoprecipitates obtained by the same cells using normal control IgG (middle panel) and immunoprecipitates obtained by the same cells using an anti-β-catenin antibody (right panel). IP, immunoprecipitation; WB, Western blot; Ab antibody.

For data set [3], the system named is β-catenin signalling pathway genes in HT29 colon adenocarcinoma cell line. Description: QRT-PCR analysis of β-catenin signalling pathway genes in HT29 cells. To be noted: 20 mM 5-ASA, 96 h. On the procedure:
These findings were also confirmed in another colon adenocarcinoma cell line, named HT29, under the same experimental conditions.
FIG. 5. Biological effects determined by treatment with 5-ASA on the HT29 colon adenocarcinoma cell line. The mRNA expression variations of gene belonging to the β-catenin signalling pathway were analyzed in HT29 cells using the QRT-PCR reaction under the experimental conditions described in Results and in FIG. 1.
Total RNA was extracted from cell suspensions and frozen tissues by means of the Qiagen total RNA purification kit as recommended by the manufacturer (Qiagen, Valencia, Calif.). RNA integrity and concentration were verified using the Bio-Analyzer technique (Applied Biosystem, Foster City, Calif.). 100 ng of total RNA were reverse transcribed using the High Capacity cDNA Archive Kit (Applied Biosystems) according to the manufacturer's instructions. QRT-PCR was performed with an ABI PRISM 7900 sequence detection system (Applied Biosystems) to quantify the relative levels of mRNA in the samples. […] Evaluation of QRT-PCR signals was performed using the ΔΔCt relative quantitation method. […] The values obtained were expressed in terms of relative quantity (RQ) of mRNA level variation.

Data set [4] concerns β-catenin protein in CaCo2 cells. Description: Immunofluorescence assay of sub-cellular distribution of β-catenin in CaCo2 cells. To be noted: 20 mM 5-ASA, after 96 h of culture. Here is the method: Due to the particular regulation mechanisms controlling the β-catenin signalling pathway, levels of β-catenin protein observed in the different subcellular compartments represent reliable indicators of the extent of its activation. Based on this premise we performed an immunofluorescence assay to assess the sub-cellular distribution of β-catenin protein in CaCo2 cells undergoing treatment with 20 mM 5-ASA. […] FIG. 3. Immunofluorescence analysis of β-catenin protein on CaCo2 cells exposed to 5-ASA treatment. Cells were stimulated with 5-ASA as explained in Results and subsequently stained with an anti-β-catenin primary antibody and a FITC conjugated secondary antibody (green fluorescence). Untreated control cells (CONT.) were also analyzed. Nuclei were counterstained with DAPI (blue fluorescence). Merge images, of the two analyzed fluorescence signals, are also shown.

Data set [5] relates to onco-suppressor genes in CaCo2 cells. Description: Affimetrix microarray analysis of transcriptome changes in CaCo2 cells. As to conditions: 20 mM 5-ASA for 96 h. On the procedure:
(§1) To investigate the molecular mechanisms underlying this effect we performed a microarray analysis, using the Affimetrix methodology, in order to assess the transcriptome changes determined on CaCo2 cells by treatment with 20 mM 5-ASA for 96 h. […] This gene codes for a member of the cadherin superfamily and, based on previous reports by other authors, appeared as a putative inhibitor of the β-catenin signalling pathway, i.e. a cell proliferation pathway mediated by the activity of the β-catenin transcription factor^16,17. The relevance of this finding resides in the observation that the β-catenin signalling pathway is constitutively activated in CRC. […] Up-regulation of mRNA expression resulted to be 12-fold for μ-protocadherin, 16-fold for p21^waf-1, 4 to 6-fold for KLF4 and CEBPα and 2 to 3-fold Axin 1 and ICAT. […] The up-regulation of these genes appeared also more pronounced at the end of stimulation (96 h). mRNA expression of E-cadherin and β-catenin appeared, conversely, unaffected (FIG. 1).

Data set [6] relates to β-catenin signalling pathway genes in CaCo2 colon adenocarcinoma cells. Description: QRT-PCR analysis of genes regulating the β-catenin signalling pathway in CaCo2 cells. As to conditions: 20 mM 5-ASA. Here is the method: as §1
FIG. 1. QRT-PCR analysis of genes belonging to the β-catenin signalling pathway in CaCo2 cells treated with 5-ASA. Cells under the experimental conditions described in Results were analyzed by QRT-PCR to estimate the mRNA expression of genes belonging to the β-catenin signalling pathway, all indicated on y-axis. The effect determined by 5-ASA treatment on the mRNA expression of KLF4 and CEBPα onco-suppressor genes is also shown.
Total RNA was extracted from cell suspensions and frozen tissues by means of the Qiagen total RNA purification kit as recommended by the manufacturer (Qiagen, Valencia, Calif.). RNA integrity and concentration were verified using the Bio-Analyzer technique (Applied Biosystem, Foster City, Calif.). 100 ng of total RNA were reverse transcribed using the High Capacity cDNA Archive Kit (Applied Biosystems) according to the manufacturer's instructions. QRT-PCR was performed with an ABI PRISM 7900 sequence detection system (Applied Biosystems) to quantify the relative levels of mRNA in the samples. Primers and probes for mRNA amplification of μ-protocadherin, E-cadherin, β-catenin, Axin-1, Inhibitor of β-Catenin and TCF-4 (ICAT), p21^waf-1, KLF4, CEBPα, and glyceraldehyde-3-phosphate dehydrogenase (GAPDH) were designed by Applied Biosystems. Each cDNA sample was run in triplicate in 50 μl reaction volume using Taqman Universal PCR Master Mix (Applied Biosystems). Thermal cycling was started with an initial denaturation at 50° C. for 2 min and 95° C. for 10 min, followed by 40 thermal cycles of 15 sec at 95° C. and 1 min at 60° C. Evaluation of QRT-PCR signals was performed using the ΔΔCt relative quantitation method. […] The values obtained were expressed in terms of relative quantity (RQ) of mRNA level variation.

Data set [7] concerns μ-protocadherin protein in CaCo2 cells. Description: Time course Western blot of μ-protocadherin protein expression in CaCo2 cells. To be noted: 20 mM 5-ASA for up to 96 h, 24 h intervals. On the procedure:
To confirm μ-protocadherin induction we performed a time course Western blot analysis on CaCo2 cells undergoing exposure to 20 mM 5-ASA for up to 96 h. […] FIG. 2. Results of a time course Western blot analysis evaluating the expression of μ-protocadherin protein in CaCo2 cells treated with 5-ASA. This analysis was performed on cytoplasmic extracts of studied cells, at 24 h intervals following treatment with 5-ASA. Analyzed cell samples are indicated on the top. Normalization of the protein amount loaded in each lane was achieved using a pan-actin antibody able to detect either cytoplasmic or nuclear actin.
A general note: In western blotting, separated proteins are transferred to a membrane and probed.

Where [8] appears, read: 48 and 96 h (more pronounced at 96 h).

In the case of `Nc1ccc(O)c(C(=O)O)c1` [5-ASA, 5 aminosalicylic acid], in data set [1], the “proliferation activity of CaCo2 cells” value is given as “inhibits the proliferation activity”. For the same molecule, the “μ-protocadherin bands (93 and 110 kDa) in β-catenin immunoprecipitate” value in data set [2] is listed as “interacting with β-catenin”. Also, in data set [3], the “induction of p21^waf-1 mRNA expression” value is 5 fold and the “induction of μ-protocadherin mRNA expression” value is recorded as 3 fold. Moreover, in data set [4], the “sub-cellular localization of β-catenin signal” value is “almost exclusively localized in the plasmatic membrane”. Also, the “expression of onco-suppressor genes (μ-protocadherin, KLF4, CEBPα) by microarray” value in data set [5] is given as “up-regulated expression”. In data set [6] (48 and 96 h), the “mRNA expression of E-cadherin” value is “unaffected” and the “mRNA expression of β-catenin” value was “unaffected”. Besides, in data set [6] (setting [8]), the “up-regulation of p21^waf-1 mRNA expression” value is 16 fold and the “up-regulation of μ-protocadherin mRNA expression” value was determined as 12 fold. Also, the “μ-protocadherin protein expression in cytoplasmic extract (Western blot)” value in data set [7] is given as “gradually but remarkably induced”.
